Test results as given in patent US12577231B2, “Androgen receptor PROTACS” (GlaxoSmithKline Intellectual Property Development Limited, priority 2023, dated 2026).

Biological target: T1, Androgen Receptor protein in human LnCaP cells (Homo sapiens, UniProt P10275, T878A)
T1 construct: the AR gene was modified, using CRISPR/Cas9 editing, so the expressed AR protein included an 11 amino acid HiBiT tag; endogenous in cells; host or cells: clonal LnCaP derived cell line, endogenous AR gene edited by CRISPR/Cas9
T1 sequence (P10275 1-920 T878A): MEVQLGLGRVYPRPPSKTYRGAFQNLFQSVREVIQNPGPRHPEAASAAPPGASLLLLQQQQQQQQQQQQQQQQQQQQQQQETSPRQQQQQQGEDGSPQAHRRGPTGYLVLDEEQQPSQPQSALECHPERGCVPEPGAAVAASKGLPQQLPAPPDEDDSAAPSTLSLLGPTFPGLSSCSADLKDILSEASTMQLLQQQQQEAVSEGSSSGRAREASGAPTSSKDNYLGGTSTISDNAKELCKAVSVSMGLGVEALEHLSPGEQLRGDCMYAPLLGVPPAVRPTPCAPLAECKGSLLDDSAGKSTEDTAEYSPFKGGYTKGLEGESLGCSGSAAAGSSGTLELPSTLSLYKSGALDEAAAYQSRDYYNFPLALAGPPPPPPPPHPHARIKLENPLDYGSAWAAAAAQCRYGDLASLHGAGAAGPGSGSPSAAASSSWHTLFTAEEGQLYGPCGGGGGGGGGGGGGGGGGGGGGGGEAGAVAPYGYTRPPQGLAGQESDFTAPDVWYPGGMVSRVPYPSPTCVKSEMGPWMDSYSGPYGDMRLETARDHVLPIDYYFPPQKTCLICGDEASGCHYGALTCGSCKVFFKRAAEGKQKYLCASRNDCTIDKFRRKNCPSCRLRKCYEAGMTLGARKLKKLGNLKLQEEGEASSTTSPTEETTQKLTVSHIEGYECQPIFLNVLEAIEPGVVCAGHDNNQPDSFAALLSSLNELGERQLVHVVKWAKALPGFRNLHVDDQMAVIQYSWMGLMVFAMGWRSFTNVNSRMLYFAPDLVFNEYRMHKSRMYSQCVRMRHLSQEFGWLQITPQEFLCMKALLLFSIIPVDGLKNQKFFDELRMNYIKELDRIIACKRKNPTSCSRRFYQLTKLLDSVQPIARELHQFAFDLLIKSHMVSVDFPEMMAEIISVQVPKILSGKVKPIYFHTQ
Assay: Androgen Receptor Degradation Assay (Nano-Glo HiBiT, LnCaP cells)
Type: cell-based
Conditions: 18 h, HiBiT-tagged AR LnCaP cells, 18 h incubation, fitted curve asymptote maximum of degradation, read-out: mean asymptote max
Protocol: Degradation of Androgen Receptor protein in human LnCaP cells treated with PROTACs was quantified using the Nano-Glo® HiBiT Lytic Detection System (Promega) in 384 well assay plate format. A clonal LnCaP derived cell line was first established in which the AR gene was modified, using CRISPR/Cas9 editing, so the expressed AR protein included an 11 amino acid HiBiT tag at its amino-terminus. 10 mM DMSO stock solutions of PROTACs were prepared and diluted across an 11 concentration, 3 fold increment range, and 25 nL dispensed into a white opaque bottomed 384 well assay plate (Thermofisher) using an acoustic ECHO dispenser (Labcyte). Cells were grown in cell culture medium (RPMI 1640 supplemented with 15% FBS, penicillin 50U/mL and streptomycin 50 ug/mL (Thermofisher)). For the assay, cells were detached from flask and resuspended with assay medium (FluoroBrite™ DMEM supplemented with 10% heat inactivated FBS, penicillin 50U/mL and streptomycin 50 ug/mL (Thermofisher)). The cell suspension was centrifuged at 400 g for 5 min and the pellet resuspended in assay medium. 25 μL of cell suspension containing 10,000 cells was dispensed into each well of the assay plate containing a serial dilution of test compounds, which was then incubated for 18 h at 37° C./5% CO2. Control wells were included on each assay plate, with assay medium without cells being the no AR remaining 100% effect control, and cells treated with DMSO vehicle only, without PROTAC, the 0% effect control. 25 μL of Nano-Glo® HiBiT lysis buffer supplemented with LgBiT protein and Nano-Glo® substrate (Promega) was added to each well and the plate shaken at 500 rpm for 10 min at room temperature. The intensity of luminescence was measured using a PHERAstar microplate reader (BMG Labtech) and the % AR protein remaining in each well calculated by normalising the raw luminescence value to the above control wells. Parameters corresponding to the potency and efficacy estimates of the PROTACs were obtained from these normalised luminescence values using software (IDBS ActivityBase). These included the DC50 (concentration at which 50% of protein was degraded in M) and the Dmax (maximal degradation, in %) estimates. Two versions of the DC50, called relative DC50 and absolute DC50, were generated. These are the inflection point of a fitted 4 parameter sigmoidal response curve and the interpolated concentration of PROTAC corresponding to 50% of the protein being degraded, respectively. The corresponding pDC50 is reported as −log10(relative […]). The Dmax parameter was the maximum experimentally observed degradation and the asymptote max parameter the fitted response curve asymptote maximum.

Row | Structure (SMILES) | Dmax
1 | CC1(C)[C@H](NC(=O)c2ccc(N3CCC(CN4CCC(n5ncc6c(N7CCC(=O)NC7=O)cc(Cl)cc65)CC4)CC3)c(F)c2)C(C)(C)[C@H]1Oc1ccc(C#N)c2ncccc12 [Example 41, 4-(4-((4-(6-Chloro-4-(2,4-dioxotetrahydropyrimidin-1(2H)-yl)-1H-indazol-1-yl)piperidin-1-yl)methyl)piperidin-1-yl)-/-((1r,3r)-3-((8-cyanoquinolin-5-yl)oxy)-2,2,4,4-tetramethylcyclobutyl)-3-fluorobenzamide] | ≥ 50%
2 | CC1(C)[C@H](NC(=O)c2ccc(N3CCC(CN4CCC(n5ncc6c(N7CCC(=O)NC7=O)cc(F)cc65)CC4)CC3)c(F)c2)C(C)(C)[C@H]1Oc1ccc(C#N)c2ncccc12 [Example 38, N-((1r,3r)-3-((8-Cyanoquinolin-5-yl)oxy)-2,2,4,4-tetramethylcyclobutyl)-4-(4-((4-(4-(2,4-dioxotetrahydropyrimidin-1(2H)-yl)-6-fluoro-1H-indazol-1-yl)piperidin-1-yl)methyl)piperidin-1-yl)-3-fluorobenzamide] | ≥ 50%
3 | CC1(C)[C@H](NC(=O)c2ccc(N3CCC(CN4CC[C@H](n5ncc6c(N7CCC(=O)NC7=O)cccc65)C4)CC3)c(F)c2)C(C)(C)[C@H]1Oc1ccc(C#N)c2ncccc12 [Example 37, N-((1r,3r)-3-((8-Cyanoquinolin-5-yl)oxy)-2,2,4,4-tetramethylcyclobutyl)-4-(4-(((S)-3-(4-(2,4-dioxotetrahydropyrimidin-1(2H)-yl)-1H-indazol-1-yl)pyrrolidin-1-yl)methyl)piperidin-1-yl)-3-fluorobenzamide] | ≥ 50%
4 | CC1(C)[C@H](NC(=O)c2ccc(N3CCC(CN4CCC(n5ncc6c(N7CCC(=O)NC7=O)ccnc65)CC4)CC3)c(F)c2)C(C)(C)[C@H]1Oc1ccc(C#N)c2ncccc12 [Example 40, N-((1r,3r)-3-((8-Cyanoquinolin-5-yl)oxy)-2,2,4,4-tetramethylcyclobutyl)-4-(4-((4-(4-(2,4-dioxotetrahydropyrimidin-1(2H)-yl)-1H-pyrazolo[3,4-b]pyridin-1-yl)piperidin-1-yl)methyl)piperidin-1-yl)-3-fluorobenzamide] | ≥ 50%
5 | CC1(C)[C@H](NC(=O)c2ccc(N3CCC(CN4CCC(n5ncc6c(N7CCC(=O)NC7=O)cc(C(F)(F)F)cc65)CC4)CC3)c(F)c2)C(C)(C)[C@H]1Oc1ccc(C#N)c2ncccc12 [Example 42, N-((1r,3r)-3-((8-Cyanoquinolin-5-yl)oxy)-2,2,4,4-tetramethylcyclobutyl)-4-(4-((4-(4-(2,4-dioxotetrahydropyrimidin-1(2H)-yl)-6-(trifluoromethyl)-1H-indazol-1-yl)piperidin-1-yl)methyl)piperidin-1-yl)-3-fluorobenzamide] | ≥ 50%
6 | COc1cc(O[C@H]2C(C)(C)[C@H](NC(=O)c3ccc(N4CCC(CN5CC[C@@H](n6ncc7c(N8CCC(=O)NC8=O)cccc76)[C@@H](F)C5)CC4)c(F)c3)C2(C)C)ccc1C#N [Example 27, N-((1r,3r)-3-(4-Cyano-3-methoxyphenoxy)-2,2,4,4-tetramethylcyclobutyl)-4-(4-(((3,4R)-4-(4-(2,4-dioxotetrahydropyrimidin-1(2H)-yl)-1H-indazol-1-yl)-3-fluoropiperidin-1-yl)methyl)piperidin-1-yl)-3-fluorobenzamide] | ≥ 50%
7 | CC1(C)[C@H](NC(=O)c2cc(F)c(N3CCC(CN4CCC(n5ncc6c(N7CCC(=O)NC7=O)cccc65)CC4)CC3)c(F)c2)C(C)(C)[C@H]1Oc1ccc(C#N)c2ncccc12 [Example 30, N-((1r,3r)-3-((8-Cyanoquinolin-5-yl)oxy)-2,2,4,4-tetramethylcyclobutyl)-4-(4-((4-(4-(2,4-dioxotetrahydropyrimidin-1(2H)-yl)-1H-indazol-1-yl)piperidin-1-yl)methyl)piperidin-1-yl)-3,5-difluorobenzamide] | ≥ 50%
8 | CC1(C)[C@H](NC(=O)c2ccc(N3CCC(CN4CCC(n5ccc6c(N7CCC(=O)NC7=O)ncnc65)CC4)CC3)cc2)C(C)(C)[C@H]1Oc1ccc(C#N)c2ncccc12 [Example 28, N-((1r,3r)-3-((8-Cyanoquinolin-5-yl)oxy)-2,2,4,4-tetramethylcyclobutyl)-4-(4-((4-(4-(2,4-dioxotetrahydropyrimidin-1(2H)-yl)-7H-pyrrolo[2,3-d]pyrimidin-7-yl)piperidin-1-yl)methyl)piperidin-1-yl)benzamide] | ≥ 50%
9 | CC1(C)[C@H](NC(=O)c2ccc(N3CCC(CN4CC[C@@H](n5ncc6c(N7CCC(=O)NC7=O)cccc65)[C@@H](F)C4)CC3)c(F)c2)C(C)(C)[C@H]1Oc1ccc(C#N)c2ncccc12 [Example 45, N-((1r,3r)-3-((8-Cyanoquinolin-5-yl)oxy)-2,2,4,4-tetramethylcyclobutyl)-4-(4-(((35,4R)-4-(4-(2,4-dioxotetrahydropyrimidin-1(2H)-yl)-1H-indazol-1-yl)-3-fluoropiperidin-1-yl)methyl)piperidin-1-yl)-3-fluorobenzamide] | ≥ 50%
10 | CC1(C)[C@H](NC(=O)c2ccc(N3CCC(CN4CCC(n5ncc6c(N7CCC(=O)NC7=O)cccc65)CC4)CC3)c(F)c2)C(C)(C)[C@H]1Oc1ccc(C#N)c2c1CCCO2 [Example 8, N-((1r,3r)-3-((8-Cyanochroman-5-yl)oxy)-2,2,4,4-tetramethylcyclobutyl)-4-(4-((4-(4-(2,4-dioxotetrahydropyrimidin-1(2H)-yl)-1H-indazol-1-yl)piperidin-1-yl)methyl)piperidin-1-yl)-3-fluorobenzamide] | ≥ 50%
11 | CC1(C)[C@H](NC(=O)c2ccc(N3CC[C@H](CN4CCC(n5ncc6c(N7CCC(=O)NC7=O)cccc65)CC4)C3)c(F)c2)C(C)(C)[C@H]1Oc1ccc(C#N)c2ncccc12 [Example 34, N-((1r,3R)-3-((8-Cyanoquinolin-5-yl)oxy)-2,2,4,4-tetramethylcyclobutyl)-4-((R)-3-((4-(4-(2,4-dioxotetrahydropyrimidin-1(2H)-yl)-1H-indazol-1-yl)piperidin-1-yl)methyl)pyrrolidin-1-yl)-3-fluorobenzamide] | ≥ 50%
12 | CC1(C)[C@H](NC(=O)c2ccc(N3CCC(CN4CCC(n5ccc6c(N7CCC(=O)NC7=O)cccc65)CC4)CC3)c(F)c2)C(C)(C)[C@H]1Oc1ccc(C#N)c2ncccc12 [Example 31, N-((1r,3r)-3-((8-Cyanoquinolin-5-yl)oxy)-2,2,4,4-tetramethylcyclobutyl)-4-(4-((4-(4-(2,4-dioxotetrahydropyrimidin-1(2H)-yl)-1H-indol-1-yl)piperidin-1-yl)methyl)piperidin-1-yl)-3-fluorobenzamide] | ≥ 50%
13 | CC1(C)[C@H](NC(=O)c2ccc(N3CCC(CN4CCC(n5ncc6c(N7CCC(=O)NC7=O)c(F)ccc65)CC4)CC3)c(F)c2)C(C)(C)[C@H]1Oc1ccc(C#N)c(Cl)c1 [Example 13, N-((1r,3r)-3-(3-Chloro-4-cyanophenoxy)-2,2,4,4-tetramethylcyclobutyl)-4-(4-((4-(4-(2,4-dioxotetrahydropyrimidin-1(2H)-yl)-5-fluoro-1H-indazol-1-yl)piperidin-1-yl)methyl)piperidin-1-yl)-3-fluorobenzamide] | ≥ 50%
